{"source": "patent US11001802B2", "about": "“Surface of a vessel with polystyrene, nitrogen, oxygen and a static sessile contact angle for attachment and cultivation of cells” (Nunc A/S, priority 2008, dated 2021)", "system": "human ES cell line H9", "assay": "Adhesion and growth of H9 cells passaged as single cells on surface modified plates (Examples 6, 8)", "assay_type": "cell-based", "experimental": "Human ES cells of the cell line H9 were grown as single cells according to the methods disclosed in US patent Application LFS5163USPSP, assigned to LifeScan Inc. Cells were passaged by treatment with TrypLE™ Express for five minutes at 37° C., and seeded at 10,000 cells/cm^2 substrate surface.\nInitial passaging of H9 human ES cells onto surface modified plates. Adhesion is improved with continuous 10 μM of Y-27632. This is true for the four surface modified plates tested: 2, 3, 4 and 13.\nThe role of Y-27632 in human ES cell adhesion and cell growth was studied in relation to the surface modified plates. H9 human ES cells were passaged 38 times with collagenase and 50 times with TrypLE™ Express followed by seeding onto Surfaces modified plates 3 or 4 (naïve cells). Alternatively H9 human ES cells passaged 38 times with collagenase and 38 times with Triple Express followed by 9 passages on surface modified plate 3 (Surface 3, acclimated cells), or surface modified plate 4 (Surface 4, acclimated cells). Cells were seeded at a density of 10^4/cm^2 in MEF conditioned media and grown for two days with or without the presence of 10 μM of Y-27632. […] Surface modified plate 4 improved attachment and/or growth of acclimated human ES cells. The cells were followed for a total of 4 days (FIGS. 19 and 20)."}
{"smiles": "C[C@@H](N)[C@H]1CC[C@H](C(=O)Nc2ccncc2)CC1", "note": "[Surface Y-27632, Y-27632]", "values": [{"measurement": "attachment of naïve single cells", "setting": "10 μM Y-27632, surface modified plates 3 and 4", "result": "improves attachment"}, {"measurement": "attachment of acclimated single cells", "setting": "10 μM Y-27632, surface modified plates 3 or 4", "result": "did not improve attachment"}, {"measurement": "adhesion of H9 cells passaged with TrypLE Express", "setting": "continuous 10 μM Y-27632, surface modified plates 2, 3, 4 and 13", "result": "improved"}]}
